Measured values reported in patent US20220323406A1, “METHODS AND COMPOSITIONS FOR DIFFERENTIATING STEM CELLS” (Massachusetts Institute of Technology, priority 2019, published 2022).
Structures can show the parent of a compound that is named as a salt.

Tests used:
[1] = tested on: ENR+CD organoids (ISC to Paneth cell differentiation); experiment: Primary screen: CCh-stimulated lysozyme secretion LYZ.S, 2.5-D 384-well ENR+CD organoid differentiation; assay type: cell-based, mouse; conditions: primary screen
From the text: (§1) High-throughput screening.

[2] = tested on: ENR+CD organoids; experiment: Primary screen: ATP (CellTiter-Glo 3D, CTG) cell number/viability, 2.5-D 384-well ENR+CD organoids; conditions: primary screen; for Z.CTG: standard z score;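 on all read-outs here: compounds given at plating and again on day 3 over a 6-day differentiation from ENR+CV stem-cell-enriched precursors, ATP measured on day 6, plate median as control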
[3] = tested on: ENR+CD organoids (ISC to Paneth cell differentiation); experiment: Primary screen: basal (non-stimulated) lysozyme secretion LYZ.NS, 2.5-D 384-well ENR+CD organoid differentiation; assay type: cell-based, mouse; conditions: primary screen; for Z.LYZ.NS: standard z score
From the text: as §1

Row | Compound | Dose.FC.LYZ.S (log2 fold change) ([1]; dose 10.00 uM) | Dose.FC.CTG (log2 fold change) ([2]; dose 10.00 uM) | Dose.FC.LYZ.NS (log2 fold change) ([3]; dose 10.00 uM) | Z.LYZ.NS (standard z score) ([3]; dose 10.00 uM) | Dose.FC.LYZ.S (log2 fold change) ([1]; dose 0.08 uM) | Dose.FC.LYZ.S (log2 fold change) ([1]; dose 0.40 uM) | Dose.FC.LYZ.S (log2 fold change) ([1]; dose 2.00 uM) | Dose.FC.CTG (log2 fold change) ([2]; dose 0.08 uM) | Dose.FC.CTG (log2 fold change) ([2]; dose 0.40 uM) | Dose.FC.CTG (log2 fold change) ([2]; dose 2.00 uM) | Dose.FC.LYZ.NS (log2 fold change) ([3]; dose 0.08 uM) | Z.LYZ.NS (standard z score) ([3]; dose 0.08 uM) | Dose.FC.LYZ.NS (log2 fold change) ([3]; dose 0.40 uM) | Z.LYZ.NS (standard z score) ([3]; dose 0.40 uM) | Dose.FC.LYZ.NS (log2 fold change) ([3]; dose 2.00 uM) | Z.LYZ.NS (standard z score) ([3]; dose 2.00 uM) | Z.CTG (standard z score) ([2]; dose 0.08 uM) | Z.CTG (standard z score) ([2]; dose 0.40 uM) | Z.CTG (standard z score) ([2]; dose 2.00 uM) | Z.CTG (standard z score) ([2]; dose 10.00 uM) | other results
1 | CC1C(=O)OC2C(O)C34C5CC(C(C)(C)C)C36C(OC(=O)C6O)OC4(C(=O)O5)C12O (stereo not drawn) [Ginkgolide B] |  |  |  |  |  |  |  |  |  |  |  |  |  |  |  |  |  |  |  |  | Dose.FC.LYZ.S ([1]; dose 0.08 uM): 0.034 log2 fold change; Dose.FC.LYZ.S ([1]; dose 0.40 uM): 0.047 log2 fold change; Dose.FC.LYZ.S ([1]; dose 2.00 uM): 0.033 log2 fold change; Dose.FC.LYZ.S ([1]; dose 10.00 uM): −0.035 log2 fold change; Dose.FC.CTG ([2]; dose 0.08 uM): −0.076 log2 fold change; Dose.FC.CTG ([2]; dose 0.40 uM): 0.034 log2 fold change; Dose.FC.CTG ([2]; dose 2.00 uM): −0.154 log2 fold change; Dose.FC.CTG ([2]; dose 10.00 uM): 0.177 log2 fold change; Z.CTG ([2]; dose 0.08 uM): −0.182; Z.CTG ([2]; dose 0.40 uM): 0.081; Z.CTG ([2]; dose 2.00 uM): −0.369; Z.CTG ([2]; dose 10.00 uM): 0.422; Dose.FC.LYZ.NS ([3]; dose 0.08 uM): 0.041 log2 fold change; Dose.FC.LYZ.NS ([3]; dose 0.40 uM): 0.109 log2 fold change; Dose.FC.LYZ.NS ([3]; dose 2.00 uM): 0.061 log2 fold change; Dose.FC.LYZ.NS ([3]; dose 10.00 uM): −0.037 log2 fold change; Z.LYZ.NS ([3]; dose 0.08 uM): 0.353; Z.LYZ.NS ([3]; dose 0.40 uM): 0.950; Z.LYZ.NS ([3]; dose 2.00 uM): 0.528; Z.LYZ.NS ([3]; dose 10.00 uM): −0.326
2 | Cc1ccc(S(=O)(=O)NC(=O)NN2CC3CCCC3C2)cc1 (stereo not drawn) [Gliclazide] | −0.060 | −0.092 | −0.035 | −0.303 |  |  |  |  |  |  |  |  |  |  |  |  |  |  |  |  | Dose.FC.LYZ.S ([1]; dose 0.08 uM): 0.058 log2 fold change; Dose.FC.LYZ.S ([1]; dose 0.40 uM): 0.086 log2 fold change; Dose.FC.LYZ.S ([1]; dose 2.00 uM): −0.017 log2 fold change; Dose.FC.CTG ([2]; dose 0.08 uM): 0.162 log2 fold change; Dose.FC.CTG ([2]; dose 0.40 uM): 0.054 log2 fold change; Dose.FC.CTG ([2]; dose 2.00 uM): 0.008 log2 fold change; Dose.FC.LYZ.NS ([3]; dose 0.08 uM): 0.036 log2 fold change; Dose.FC.LYZ.NS ([3]; dose 0.40 uM): 0.032 log2 fold change; Dose.FC.LYZ.NS ([3]; dose 2.00 uM): 0.104 log2 fold change; Z.LYZ.NS ([3]; dose 0.08 uM): 0.313; Z.LYZ.NS ([3]; dose 0.40 uM): 0.278; Z.LYZ.NS ([3]; dose 2.00 uM): 0.909
3 | COc1ccc2c(c1)C(=O)N(CCc1ccc(S(=O)(=O)NC(=O)NC3CCCCC3)cc1)C(=O)C2(C)C [Gliquidone] | −0.020 | 0.134 | 0.031 | 0.268 | 0.101 | 0.070 | 0.006 | 0.124 | 0.103 | 0.246 | 0.103 | 0.893 | 0.037 | 0.322 | 0.086 | 0.747 |  |  |  |  | 
4 | COc1ccc2c(c1)c(C1=C(c3c[nH]c4ccccc34)C(=O)NC1=O)cn2CCCN(C)C [Go 6983] | −0.073 | −0.181 | −0.092 | −0.798 | 0.021 | 0.007 | −0.010 | 0.021 | −0.036 | 0.058 | −0.005 | −0.046 | 0.013 | 0.114 | 0.091 | 0.791 | 0.050 | −0.085 | 0.138 | −0.433 | 
5 | CN1C2CCCC1CC(NC(=O)c1nn(C)c3ccccc13)C2 (stereo not drawn) [Granisetron HCl] | −0.103 | −0.297 | −0.043 | −0.378 | 0.015 | 0.131 | −0.007 | −0.214 | −0.086 | −0.178 | 0.061 | 0.531 | −0.002 | −0.021 | 0.018 | 0.155 |  |  |  |  | 
6 | Cl.Cl.O=S(=O)(NCCNC/C=C/c1ccc(Br)cc1)c1cccc2cnccc12 [H 89 2HCl] | 0.000 | 0.385 | 0.132 | 1.151 | 0.118 | 0.148 | 0.087 | 0.350 | 0.398 | 0.421 | 0.140 | 1.223 | 0.080 | 0.695 | 0.086 | 0.747 | 0.836 | 0.950 | 1.005 | 0.919 | 
7 | CC(C)c1ccc(NC(=O)Cn2cnc3c2c(=O)n(C)c(=O)n3C)cc1 [HC-030031] | 0.077 | −0.241 | −0.047 | −0.411 | 0.090 | 0.097 | −0.035 | 0.082 | 0.191 | −0.008 | 0.063 | 0.547 | 0.033 | 0.291 | −0.007 | −0.057 | 0.195 | 0.457 | −0.019 | −0.575 | 
8 | O=C1[C@H](Cc2ccc(O)cc2)N2C(=O)CCN(C(=O)NCc3ccccc3)[C@H]2CN1Cc1cccc2ccccc12 [ICG-001] | −0.124 | −0.416 | −0.125 | −1.093 | 0.163 | 0.204 | 0.017 | 0.104 | 0.104 | 0.143 | 0.037 | 0.324 | 0.037 | 0.321 | 0.045 | 0.396 | 0.249 | 0.248 | 0.343 | −0.993 | 
9 | O=C(c1ccc(Nc2nccc(-c3cc4ccccc4s3)n2)cc1)N1CCC(N2CCCC2)CC1 [IKK-16 (IKK Inhibitor VII)] | −0.383 | −0.950 | −0.291 | −2.531 | 0.092 | 0.028 | −0.142 | 0.058 | −0.051 | −0.431 | 0.104 | 0.903 | 0.020 | 0.176 | −0.081 | −0.708 | 0.139 | −0.122 | −1.029 | −2.268 | 
10 | O=C(Nc1cc(C(F)(F)F)cc(C(F)(F)F)c1)c1cc(Cl)ccc1O [IMD 0354] | −0.128 | −0.480 | −0.089 | −0.777 | −0.047 | 0.043 | 0.083 | −0.007 | 0.117 | 0.076 | 0.004 | 0.035 | 0.101 | 0.880 | 0.097 | 0.847 |  |  |  |  | 
11 | O=C(O)CNC(=O)c1c(O)c2ccccc2n(Cc2ccccc2)c1=O [IOX2] | −0.049 | 0.001 | −0.045 | −0.388 | 0.047 | 0.071 | 0.001 | 0.149 | 0.078 | 0.097 | 0.029 | 0.254 | 0.028 | 0.246 | 0.043 | 0.376 | 0.356 | 0.185 | 0.232 | 0.002 | 
